Assay results published in patent publication US20210070748A1, “INHIBITORS OF BRUTONS TYROSINE KINASE” (Pharmacyclics LLC, priority 2015, published 2021).

Key:
JAK3 = target: T1, JAK3 (Homo sapiens, UniProt P52333); assay: Inhibition of a panel of kinases, in vitro HotSpot kinase assay: JAK3; assay type: biochemical; settings: D-compounds panel data; 1 μM ATP; read-out: IC50 JAK3
T1 sequence (P52333 1-1124): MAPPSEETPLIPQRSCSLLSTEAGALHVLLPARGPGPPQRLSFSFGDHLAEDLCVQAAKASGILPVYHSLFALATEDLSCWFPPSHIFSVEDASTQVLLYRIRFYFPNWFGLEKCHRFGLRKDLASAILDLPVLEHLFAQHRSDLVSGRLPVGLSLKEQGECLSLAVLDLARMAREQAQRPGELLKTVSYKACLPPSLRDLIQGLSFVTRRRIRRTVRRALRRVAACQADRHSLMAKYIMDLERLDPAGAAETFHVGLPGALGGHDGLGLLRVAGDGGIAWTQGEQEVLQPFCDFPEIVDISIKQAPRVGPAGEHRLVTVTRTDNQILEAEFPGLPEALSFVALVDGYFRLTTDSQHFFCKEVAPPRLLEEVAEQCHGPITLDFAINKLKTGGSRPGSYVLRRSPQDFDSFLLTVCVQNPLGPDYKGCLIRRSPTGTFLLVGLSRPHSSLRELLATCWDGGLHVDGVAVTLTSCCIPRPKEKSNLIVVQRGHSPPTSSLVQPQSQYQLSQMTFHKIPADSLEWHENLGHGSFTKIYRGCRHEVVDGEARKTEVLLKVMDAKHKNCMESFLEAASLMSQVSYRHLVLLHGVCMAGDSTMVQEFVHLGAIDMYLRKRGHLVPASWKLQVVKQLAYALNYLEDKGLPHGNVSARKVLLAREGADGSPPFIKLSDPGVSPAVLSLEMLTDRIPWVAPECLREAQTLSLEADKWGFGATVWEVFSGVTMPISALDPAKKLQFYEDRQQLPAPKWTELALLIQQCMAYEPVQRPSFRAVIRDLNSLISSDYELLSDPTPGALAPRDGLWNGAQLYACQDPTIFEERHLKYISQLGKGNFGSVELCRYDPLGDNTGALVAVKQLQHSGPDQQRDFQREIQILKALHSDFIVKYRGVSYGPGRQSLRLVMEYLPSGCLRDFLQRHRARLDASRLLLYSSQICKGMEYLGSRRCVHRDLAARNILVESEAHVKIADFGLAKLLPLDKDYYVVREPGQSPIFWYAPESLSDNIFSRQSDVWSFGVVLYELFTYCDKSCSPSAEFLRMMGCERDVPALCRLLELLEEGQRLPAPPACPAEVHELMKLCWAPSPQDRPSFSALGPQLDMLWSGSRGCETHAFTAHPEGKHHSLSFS

TEC = target: T2, TEC (Homo sapiens, UniProt P42680); assay: Inhibition of a panel of kinases, in vitro HotSpot kinase assay: TEC; assay type: biochemical; settings: D-compounds panel data; 1 μM ATP
T2 sequence (P42680 1-631): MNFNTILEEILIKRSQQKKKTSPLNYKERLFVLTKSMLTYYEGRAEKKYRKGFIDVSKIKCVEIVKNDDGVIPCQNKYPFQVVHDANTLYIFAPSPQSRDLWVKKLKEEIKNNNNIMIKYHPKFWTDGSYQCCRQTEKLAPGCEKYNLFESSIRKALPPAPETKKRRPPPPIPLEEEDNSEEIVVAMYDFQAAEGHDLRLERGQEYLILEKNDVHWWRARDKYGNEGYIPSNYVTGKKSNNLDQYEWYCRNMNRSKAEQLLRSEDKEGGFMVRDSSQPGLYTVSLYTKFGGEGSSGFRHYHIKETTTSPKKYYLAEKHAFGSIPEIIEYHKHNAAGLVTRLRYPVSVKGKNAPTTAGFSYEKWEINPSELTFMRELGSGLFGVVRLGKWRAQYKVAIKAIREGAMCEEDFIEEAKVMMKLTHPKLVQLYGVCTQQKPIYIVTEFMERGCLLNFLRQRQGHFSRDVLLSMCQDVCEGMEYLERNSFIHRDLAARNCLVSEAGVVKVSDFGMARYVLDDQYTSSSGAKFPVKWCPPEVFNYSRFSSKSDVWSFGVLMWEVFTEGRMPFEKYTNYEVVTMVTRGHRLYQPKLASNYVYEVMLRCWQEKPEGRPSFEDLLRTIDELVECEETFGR
Procedure: The degree of inhibition of a panel of kinases is determined using the in vitro HotSpot kinase assay (purified enzymes, ^33P-ATP, an appropriate substrate and 1 μM ATP).

Row | SMILES | IC50 (JAK3) | IC50 (TEC)
1 | C[C@@H]1[C@H](NC(=O)c2ccc(C3CC3)cc2)CCCN1c1cnc(C(N)=O)c(Nc2ccc(OC3CCCN(C)C3)cc2)n1 (stereo partly drawn) [Example D-105, 5-[(2R,3R)-3-(4-cyclopropylbenzamido)-2-methylpiperidin-1-yl]-3-({4-[(1-methylpiperidin-3-yl)oxy]phenyl}amino)pyrazine-2-carboxamide] | 0.1 to 1 µM | ≤ 0.01 µM
2 | C[C@@H]1[C@H](NC(=O)c2ccc(C3CC3)cc2)CCCN1c1cnc(C(N)=O)c(Nc2ccc(OC3C[C@H]4CC[C@@H](C3)N4C)cc2)n1 (stereo partly drawn) [Example D-106, 5-[(2R,3R)-3-(4-cyclopropylbenzamido)-2-methylpiperidin-1-yl]-3-[(4-{[(1R,5S)-8-methyl-8-azabicyclo[3.2.1]octan-3-yl]oxy}phenyl)amino]pyrazine-2-carboxamide] | 0.1 to 1 µM | ≤ 0.01 µM
3 | CC(=O)NC(C)(C)c1ccc(C(=O)N[C@@H]2CCCN(c3cnc(C(N)=O)c(Nc4cnn(C)c4)n3)[C@@H]2C)cc1 [Example D-107, 5-[(2R,3R)-3-[4-(2-acetamidopropan-2-yl)benzamido]-2-methylpiperidin-1-yl]-3-[(1-methyl-1H-pyrazol-4-yl)amino]pyrazine-2-carboxamide] | 1 to 10 µM | ≤ 0.01 µM
4 | C[C@@H]1[C@H](NC(=O)c2ccc(C(C)(C)N(C)C)cc2)CCCN1c1cnc(C(N)=O)c(Nc2cnn(C)c2)n1 [Example D-108, 5-[(2R,3R)-3-{4-[2-(dimethylamino)propan-2-yl]benzamido}-2-methylpiperidin-1-yl]-3-[(1-methyl-1H-pyrazol-4-yl)amino]pyrazine-2-carboxamide] | > 10 µM | 0.01 to 0.1 µM
5 | CNC(=O)N[C@@H]1CCCN(c2cnc(C(N)=O)c(Nc3cnn(C)c3)n2)[C@@H]1C [Example D-109, 3-[(1-methyl-1H-pyrazol-4-yl)amino]-5-[(2R,3R)-2-methyl-3-[(methylcarbamoyl)amino]piperidin-1-yl]pyrazine-2-carboxamide] | 1 to 10 µM | 0.01 to 0.1 µM
6 | C[C@@H]1[C@H](NC(=O)N(C)C)CCCN1c1cnc(C(N)=O)c(Nc2ccc(C(=O)N3CCN(C)CC3)cc2)n1 [Example D-110, 5-[(2R,3R)-3-[(dimethylcarbamoyl)amino]-2-methylpiperidin-1-yl]-3-{[4-(4-methylpiperazine-1-carbonyl)phenyl]amino}pyrazine-2-carboxamide] | 1 to 10 µM | 0.1 to 1 µM
7 | C[C@@H]1[C@H](NC(=O)N(C)C)CCCN1c1cnc(C(N)=O)c(Nc2ccc(N3CCN(C)CC3)cc2)n1 [Example D-111, 5-[(2R,3R)-3-[(dimethylcarbamoyl)amino]-2-methylpiperidin-1-yl]-3-{[4-(4-methylpiperazin-1-yl)phenyl]amino}pyrazine-2-carboxamide] | 0.1 to 1 µM | 0.1 to 1 µM
8 | C[C@@H]1[C@H](NC(=O)c2ccc(C3CC3)cc2)CCCN1c1cnc(C(N)=O)c(Nc2ccc(C3(C)CCN(C4CCCC4)CC3)cc2)n1 [Example D-112, 3-{[4-(1-cyclopentyl-4-methylpiperidin-4-yl)phenyl]amino}-5-[(2R,3R)-3-(4-cyclopropylbenzamido)-2-methylpiperidin-1-yl]pyrazine-2-carboxamide] | 0.1 to 1 µM | ≤ 0.01 µM
9 | C[C@@H]1[C@H](NC(=O)c2ccc(C3CC3)cc2F)CCCN1c1cnc(C(N)=O)c(Nc2ccc(CN3CCN(C)CC3)cc2)n1 [Example D-113, 5-[(2R,3R)-3-(4-cyclopropyl-2-fluorobenzamido)-2-methylpiperidin-1-yl]-3-({4-[(4-methylpiperazin-1-yl)methyl]phenyl}amino)pyrazine-2-carboxamide] | 0.1 to 1 µM | 0.01 to 0.1 µM
10 | C[C@@H]1[C@H](NC(=O)c2ccc(C3CC3)cc2F)CCCN1c1cnc(C(N)=O)c(Nc2ccc3ncccc3c2)n1 [Example D-114, 5-[(2R,3R)-3-(4-cyclopropyl-2-fluorobenzamido)-2-methylpiperidin-1-yl]-3-[(quinolin-6-yl)amino]pyrazine-2-carboxamide] | > 10 µM | 0.01 to 0.1 µM
11 | Cc1cc(Nc2cc(N3CCC[C@@H](NC(=O)c4ccc(C5CC5)cc4F)[C@H]3C)cnc2C(N)=O)sn1 [Example D-116, 5-[(2R,3R)-3-(4-cyclopropyl-2-fluorobenzamido)-2-methylpiperidin-1-yl]-3-[(3-methyl-1,2-thiazol-5-yl)amino]pyridine-2-carboxamide] | 1 to 10 µM | 0.1 to 1 µM
12 | C[C@@H]1[C@H](NC(=O)c2ccc(C3CC3)cc2F)CCCN1c1cnc(C(N)=O)c(Nc2cnn(C)c2)c1 [Example D-117, 5-[(2R,3R)-3-(4-cyclopropyl-2-fluorobenzamido)-2-methylpiperidin-1-yl]-3-[(1-methyl-1H-pyrazol-4-yl)amino]pyridine-2-carboxamide] | 1 to 10 µM | 0.1 to 1 µM
13 | C[C@@H]1[C@H](NC(=O)N(C)C)CCCN1c1cnc(C(N)=O)c(Nc2cc(CN3CCOCC3)ns2)n1 [Example D-118, 5-[(2R,3R)-3-[(dimethylcarbamoyl)amino]-2-methylpiperidin-1-yl]-3-{[3-(morpholin-4-ylmethyl)-1,2-thiazol-5-yl]amino}pyrazine-2-carboxamide] | 1 to 10 µM | 0.1 to 1 µM
14 | Cc1nsc(Nc2nc(N3CCC[C@@H](NC(=O)N(C)C)[C@H]3C)cnc2C(N)=O)c1C [Example D-119, 3-[(dimethyl-1,2-thiazol-5-yl)amino]-5-[(2R,3R)-3-[(dimethylcarbamoyl)amino]-2-methylpiperidin-1-yl]pyrazine-2-carboxamide] | > 10 µM | > 10 µM
15 | C[C@@H]1[C@H](NC(=O)N(C)C)CCCN1c1cnc(C(N)=O)c(Nc2ccc(CN3CCN(C)CC3)cc2)c1 [Example D-120, 5-[(2R,3R)-3-[(dimethylcarbamoyl)amino]-2-methylpiperidin-1-yl]-3-({4-[(4-methylpiperazin-1-yl)methyl]phenyl}amino)pyridine-2-carboxamide] | 1 to 10 µM | > 10 µM
16 | C[C@@H]1[C@H](NC(=O)N(C)C)CCCN1c1cnc(C(N)=O)c(Nc2ccc3cccnc3c2)n1 [Example D-121, 5-[(2R,3R)-3-[(dimethylcarbamoyl)amino]-2-methylpiperidin-1-yl]-3-[(quinolin-7-yl)amino]pyrazine-2-carboxamide] | 1 to 10 µM | 1 to 10 µM
17 | C[C@@H]1[C@H](NC(=O)c2ccc(C3CC3)cc2F)CCCN1c1cnc(C(N)=O)c(Nc2cc(CN(C)C)ns2)n1 [Example D-122, 5-[(2R,3R)-3-(4-cyclopropyl-2-fluorobenzamido)-2-methylpiperidin-1-yl]-3-({3-[(dimethylamino)methyl]-1,2-thiazol-5-yl}amino)pyrazine-2-carboxamide] | 1 to 10 µM | 0.01 to 0.1 µM
18 | CC(C)n1cc(Nc2nc(N3CCC[C@@H](NC(=O)c4ccc(C5CC5)cc4F)[C@H]3C)cnc2C(N)=O)cn1 [Example D-123, 5-[(2R,3R)-3-(4-cyclopropyl-2-fluorobenzamido)-2-methylpiperidin-1-yl]-3-{[1-(propan-2-yl)-1H-pyrazol-4-yl]amino}pyrazine-2-carboxamide] | > 10 µM | 0.01 to 0.1 µM
19 | C[C@@H]1[C@H](NC(=O)c2ccc(C3CC3)cc2F)CCCN1c1cnc(C(N)=O)c(Nc2ccc3cccnc3c2)n1 [Example D-124, 5-[(2R,3R)-3-(4-cyclopropyl-2-fluorobenzamido)-2-methylpiperidin-1-yl]-3-[(quinolin-7-yl)amino]pyrazine-2-carboxamide] | > 10 µM | 1 to 10 µM
